# Earlier results as cited in paper PMC9516332 (Frontiers in Oncology, 2022).
# Like-named read-outs stand apart in the source and are kept apart here.
# Experiments:
# [1] = molecular target: panel of 255 wild-type kinases (Homo sapiens, UniProt P06241); details: kinase FYN [isoform a], 1 µmol/L single concentration, cited from earlier work
# [2] = molecular target: panel of 255 wild-type kinases (Homo sapiens, UniProt P17612); details: kinase PKACα, 1 µmol/L single concentration, cited from earlier work
# [3] = molecular target: panel of 255 wild-type kinases (Homo sapiens, UniProt P22612); details: kinase PKACγ, 1 µmol/L single concentration, cited from earlier work
# [4] = molecular target: panel of 255 wild-type kinases (Homo sapiens, UniProt P23443); details: p70S6K, 1 µmol/L single concentration, cited from earlier work
# [5] = molecular target: panel of 255 wild-type kinases (Homo sapiens, UniProt P27448); details: MARK3, 1 µmol/L single concentration, cited from earlier work
# [6] = molecular target: panel of 255 wild-type kinases (Homo sapiens, UniProt P49841); details: kinase GSK3β, 1 µmol/L single concentration, cited from earlier work
# [7] = molecular target: T1, panel of 255 wild-type kinases (Homo sapiens, UniProt P51955); details: NEK2, 1 µmol/L single concentration, cited from earlier work
# T1 sequence (P51955 1-445): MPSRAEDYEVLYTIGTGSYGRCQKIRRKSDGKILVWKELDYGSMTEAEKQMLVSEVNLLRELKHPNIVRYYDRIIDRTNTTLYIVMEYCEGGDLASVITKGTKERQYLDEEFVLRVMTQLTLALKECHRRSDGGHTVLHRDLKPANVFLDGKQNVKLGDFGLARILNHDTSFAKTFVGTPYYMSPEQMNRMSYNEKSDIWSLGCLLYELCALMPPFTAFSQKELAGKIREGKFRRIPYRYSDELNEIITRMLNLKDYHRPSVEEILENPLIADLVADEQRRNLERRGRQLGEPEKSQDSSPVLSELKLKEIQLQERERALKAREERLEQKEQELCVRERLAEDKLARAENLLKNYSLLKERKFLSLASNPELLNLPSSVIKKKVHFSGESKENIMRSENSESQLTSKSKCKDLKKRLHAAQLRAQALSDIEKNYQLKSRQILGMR
# [8] = molecular target: panel of 255 wild-type kinases (Homo sapiens, UniProt Q04759); details: kinase PKCθ, 1 µmol/L single concentration, cited from earlier work
# [9] = molecular target: T2, panel of 255 wild-type kinases (Homo sapiens, UniProt Q13043); details: MST1, 1 µmol/L single concentration, cited from earlier work
# T2 sequence (Q13043 1-487): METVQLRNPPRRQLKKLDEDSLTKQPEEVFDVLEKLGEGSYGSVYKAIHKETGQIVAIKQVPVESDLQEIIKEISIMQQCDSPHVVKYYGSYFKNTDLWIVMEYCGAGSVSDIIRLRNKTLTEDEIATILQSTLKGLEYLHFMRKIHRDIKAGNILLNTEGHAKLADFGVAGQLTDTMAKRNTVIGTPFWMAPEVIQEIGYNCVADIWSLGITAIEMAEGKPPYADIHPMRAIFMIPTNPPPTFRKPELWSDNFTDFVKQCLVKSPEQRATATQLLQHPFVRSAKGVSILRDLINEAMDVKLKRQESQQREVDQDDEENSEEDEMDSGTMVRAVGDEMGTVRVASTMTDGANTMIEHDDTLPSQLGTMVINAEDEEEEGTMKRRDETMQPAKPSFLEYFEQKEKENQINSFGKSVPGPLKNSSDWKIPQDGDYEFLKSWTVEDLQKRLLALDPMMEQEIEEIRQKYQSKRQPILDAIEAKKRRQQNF
# [10] = molecular target: panel of 255 wild-type kinases (Homo sapiens, UniProt Q9H4B4); details: kinase PLK3, 1 µmol/L single concentration, cited from earlier work
# [11] = ref DOI: 10.1371/journal.pone.0092146
# [12] = ref DOI: 10.1158/1535-7163.MCT-18-0877
SMILES,"%-inhibition at 1 µmol/L, FYN [isoform a] [1, 11] [%]","%-inhibition at 1 µmol/L, PKACα [2, 11] [%]","%-inhibition at 1 µmol/L, PKACγ [3, 11] [%]","%-inhibition, p70S6K [4, 11] [%]","%-inhibition, MARK3 [5, 11] [%]","%-inhibition at 1 µmol/L, GSK3β [6, 11] [%]","%-inhibition, NEK2 [7, 11] [%]","%-inhibition at 1 µmol/L, PKCθ [8, 11] [%]","%-inhibition, MST1 [9, 11] [%]","%-inhibition at 1 µmol/L, PLK3 [10, 11] [%]","%-inhibition at 1 µmol/L, FYN [isoform a] [1, 12] [%]","%-inhibition at 1 µmol/L, PKACα [2, 12] [%]","%-inhibition at 1 µmol/L, PKACγ [3, 12] [%]","%-inhibition, p70S6K [4, 12] [%]","%-inhibition, MARK3 [5, 12] [%]","%-inhibition at 1 µmol/L, GSK3β [6, 12] [%]","%-inhibition, NEK2 [7, 12] [%]","%-inhibition at 1 µmol/L, PKCθ [8, 12] [%]","%-inhibition, MST1 [9, 12] [%]","%-inhibition at 1 µmol/L, PLK3 [10, 12] [%]"
CC(=O)Nc1cccc(-n2c(=O)n(C3CC3)c(=O)c3c(Nc4ccc(I)cc4F)n(C)c(=O)c(C)c32)c1 [trametinib],9,8.52,2,-1.39,-3.21,-15,2.76,0.388,-3.74,-6.59,–,–,–,–,–,–,–,–,–,–
CC#CC(=O)N1CCC[C@H]1c1nc(-c2ccc(C(=O)Nc3ccccn3)cc2)c2c(N)nccn12 [acalabrutinib],–,–,–,–,–,–,–,–,–,–,6,-5,1.68,-14,-2.57,-2.39,-6.35,-8,4,1.76
C=CC(=O)Nc1cc(Nc2nccc(-c3cn(C)c4ccccc34)n2)c(OC)cc1N(C)CCN(C)C [osimertinib],–,–,–,–,–,–,–,–,–,–,0.721,-11,7.4,21,9,-4,8,10,1.52,5
CO[C@@H]1[C@H](N(C)C(=O)c2ccccc2)C[C@H]2O[C@]1(C)n1c3ccccc3c3c4c(c5c6ccccc6n2c5c31)C(=O)NC4 [midostaurin],–,–,–,–,–,–,–,–,–,–,78,93,81,82,–,–,0.207,–,–,-0.227
C=CC(=O)N1CCC[C@@H](n2nc(-c3ccc(Oc4ccccc4)cc3)c3c(N)ncnc32)C1 [ibrutinib],–,–,–,–,–,–,–,–,–,–,93,-11,5,19,-6,-4,6.64,-1.13,4,1.53
C[C@@H](Oc1cc(-c2cnn(C3CCNCC3)c2)cnc1N)c1c(Cl)ccc(F)c1Cl [crizotinib],42,-6,-6.52,40,41,-2.11,-2.69,-3,83,-2.24,–,–,–,–,–,–,–,–,–,–
